Laboratory results reported in PubChem BioAssay (NCI).
Where “and” joins values, the source holds several entries; their conditions need not be identical. Identical values can stand only once.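 How tested: cells in 96-well plates exposed to compound for 48 hours at five concentrations. The concentration for 50% growth inhibition is given as GI50. TGI is the concentration that stops growth completely.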

Key:
Experiment in all cases: inhibition of tumour cell growth, NCI panel, 48 h
[1] = test system: COLO 205 colon
[2] = test system: SK-MEL-5 melanoma
[3] = test system: OVCAR-5 ovarian
[4] = test system: CCRF-CEM leukemia
[5] = test system: UACC-257 melanoma
[6] = test system: HCT-15 colon
[7] = test system: SR leukemia
[8] = test system: HCC-2998 colon
[9] = test system: A549 NSCLC
[10] = test system: EKVX NSCLC

Structure (SMILES)	GI50 [1] [µM]	TGI [1]	GI50 [2] [µM]	TGI [2]	GI50 [3] [µM]	TGI [3]	GI50 [4] [µM]	TGI [4]	GI50 [5] [µM]	TGI [5] [µM]	GI50 [6] [µM]	TGI [6]	GI50 [7] [µM]	TGI [7]	GI50 [8] [µM]	TGI [8]	GI50 [9] [µM]	TGI [9]	GI50 [10] [µM]	TGI [10] [µM]
O=c1[nH]nnc2c1ncn2C1OC(CO)C(O)C1O (stereo not drawn)	6.09	> 100 µM	32.9	> 100 µM	74.9	> 100 µM	3.19	> 100 µM	14.1	> 100	8.04	> 100 µM	3.21	59.7 µM	4.12	> 100 µM	75.7	> 100 µM		
COc1ccc2[nH]cc(-c3ccc(-c4c[nH]c5ccc(OC)cc45)s3)c2c1	4.68	11.5 µM	5.05	17.6 µM	6.43	18.7 µM	0.345	13.6 µM	11.4	> 46.5	2.73	8.72 µM			2.4	5.13 µM	3.94	21.9 µM	8.33	26.9
C=C1C(=O)O[C@H]2[C@H]1CC/C(COC(=O)CSCSCC(=O)OC/C1=C/CC[C@@]3(C)O[C@H]3[C@H]3OC(=O)C(=C)[C@@H]3CC1)=C\CC[C@@]1(C)O[C@@H]21	1.34	3.06 µM	1.95	4.33 µM	1.95	3.92 µM	0.304	1.47 µM	1.89	4.67	1.33	2.83 µM			1.8	3.46 µM	2.44	6.23 µM	1.6	3.38
C=CCNC(=O)N(CCCCC(NC(C)=O)C(=O)NCc1ccccc1)Cc1ccccc1 (stereo not drawn)		> 100 µM		> 100 µM		> 100 µM		> 100 µM		> 100		> 100 µM						> 100 µM		> 100
O.O.[NH-]C1(C(=O)O)CCCC1.[NH-]C1(C(=O)O)CCCC1.[Ni+2]		> 100 µM		> 100 µM		> 100 µM		> 100 µM		> 100		> 100 µM	65.9	> 100 µM				> 100 µM		> 100
OC(Cc1ccncc1)C(Cl)(Cl)Cl (stereo not drawn)	> 100	> 100 µM			> 100	> 100 µM	32	> 100 µM	> 100	> 100	> 100	> 100 µM					> 100	> 100 µM	86.3	> 100
O=C(c1ccccc1)c1ccccc1-c1ccccc1	2.87	8.37 µM	3.2	12.5 µM	14.6	> 100 µM			14.5	> 100	2.74	> 100 µM			6.14	34.5 µM	4.87	> 100 µM	4.22	> 100
O=C(Nc1ccc([As](=O)(O)O)cc1)Nc1cccc(Cl)c1Cl		> 100 µM		> 100 µM		> 100 µM				> 100		> 100 µM		> 100 µM		> 100 µM		> 100 µM		> 100
CN1CCC2(CC1)ONC1=NCCN12	31.1	> 100 µM	59.8	> 100 µM			13.4	42.3 µM	> 100	> 100	24.1	> 100 µM			15.8	43.8 µM			92.5	> 100
CC(C)Cn1cnc2c(SCc3ccc(Cl)cc3Cl)nc(N)nc21		24.6 µM		22.8 µM		> 100 µM				74.6		> 100 µM		25.8 µM		37.4 µM		> 100 µM		> 100
O=C(O)CCC(=O)N1c2ccccc2CC1c1c[nH]c2ccccc12 (stereo not drawn)		> 100 µM		> 100 µM		> 100 µM		> 100 µM		> 100		> 100 µM				> 100 µM		> 100 µM		> 100
CCOC(=O)N1CCN(/[N+]([O-])=N/Oc2ccc([N+](=O)[O-])cc2[N+](=O)[O-])CC1	0.349	14.4 µM	2.77	12.1 µM	2.16	9.09 µM	0.158	12.2 µM	2.27	7	0.346	1.46 µM			1.12	2.33 µM	3.63	14.1 µM	12.6	32.6
Cc1c[n+](=O)c2ccccc2n1[O-]		> 100 µM		> 100 µM		> 100 µM		> 100 µM		> 100		> 100 µM		> 100 µM				> 100 µM		> 100
O/N=C1/C(=C/c2ccc3c(c2)OCO3)CCCC1C(NO)c1ccc2c(c1)OCO2 (stereo not drawn)		64.9 µM		32.3 µM				53 µM		33.9		83.8 µM				55.5 µM		95.4 µM		89.1
O=C(NCCCCNc1cccccc1=O)OCc1ccccc1		> 100 µM		> 100 µM		> 100 µM		> 100 µM		> 100		> 100 µM				> 100 µM		> 100 µM		> 100
COC(=O)NC(=O)c1cn(C2OC(CO)C(O)C2O)c(=O)[nH]c1=O (stereo not drawn)		> 100 µM				> 100 µM				> 100		> 100 µM		> 100 µM		> 100 µM		> 100 µM		
CC1(C)O[C@H]2[C@H](O)C[C@](O)(CO)C[C@H]2O1		> 100 µM		> 100 µM		> 100 µM				> 100		> 100 µM		> 100 µM				> 100 µM		> 100
CCCCCCCCCCCc1nnc(N)o1		> 100 µM				> 100 µM				> 100		> 100 µM				> 100 µM		> 100 µM		

Structure (SMILES)	GI50 [1] [µM]	TGI [1]	GI50 [2] [µM]	TGI [2]	GI50 [3] [µM]	TGI [3]	GI50 [4] [µM]	TGI [4]	GI50 [5] [µM]	TGI [5] [µM]	GI50 [6] [µM]	TGI [6]	GI50 [7] [µM]	TGI [7]	GI50 [8] [µM]	TGI [8]	GI50 [9] [µM]	TGI [9]	GI50 [10] [µM]	TGI [10] [µM]
CCOC(=O)/C(C=Nc1ccc(-c2nc3ccccc3[nH]2)cc1)=C(/C)O	10.7	33.4 µM	7.71	15.5 µM	17.1	36.3 µM			11.5	28.3	10.1	24.4 µM					12	29.9 µM	11.9	38.9
Cc1cc(CC(=O)NCCO)n(CCO)c(=O)c1		> 100 µM		> 100 µM		> 100 µM		> 100 µM		> 100				> 100 µM		> 100 µM		> 100 µM		
COc1cc(C(O)CCBr)c(OC)cc1C (stereo not drawn)		> 57 µM		> 38 µM		> 100 µM		> 52.7 µM		> 100		> 100 µM		> 31.6 µM				> 100 µM		> 100
CCOC(=O)c1c(C)nc2c(c1N)CC(=O)N2Cc1ccc(OC)cc1	> 100	> 100 µM	> 100	> 100 µM	> 100	> 100 µM	> 100	> 100 µM					63.1	> 100 µM	> 100	> 100 µM			7.91	> 100
CCN(CC)c1c(C(=O)/C=C/c2ccc(Cl)cc2)c(-c2ccccc2)nn(C)c1=O		4.01 µM		3.2 µM		3.23 µM		8.82 µM		3.76		3.31 µM				3.24 µM		3.89 µM		6.87
C/C=C(\C)C(=O)NC1=CC[C@@]2(C)C(=CCC3C2CC[C@@]2(C)C3CC[C@@H]2C(C)N(C)C)C1=O (stereo partly drawn)	1.72	3.45 µM	1.39	2.95 µM	4.78	25.4 µM	2.58	15.3 µM	2.88	9.36	1.54	4.65 µM			4.01	15.6 µM	4.99	23.4 µM	3.17	51.8
CC1(C)C2CCC13C(=O)C1OC3(C2)C2C(=O)c3cc4ccccc4cc3C(=O)C12 (stereo not drawn)	14.7	> 100 µM			18.4	> 100 µM	3.42	25.7 µM	20.8	64.8	9.28	68.8 µM	1.83	7.04 µM	8.53	> 100 µM	26.2	76.3 µM		
CN(/N=C/c1cccc2cccnc12)c1ccc([N+](=O)[O-])cc1[N+](=O)[O-]		> 100 µM		> 100 µM		> 89.6 µM		> 100 µM		> 100		> 100 µM				> 100 µM		> 100 µM		> 95
O=C1N(C2CCCCC2)CC12CCCCC2		> 100 µM		> 100 µM				> 100 µM				> 100 µM				> 100 µM		> 100 µM		> 100
CC1=C(c2ccccc2)C(c2ccccc2)=C(c2ccccc2)C2(c3ccccc3)C(=O)C(C)CN12 (stereo not drawn)				> 100 µM		> 100 µM				> 100		> 100 µM		> 100 µM		> 100 µM		> 100 µM		> 100
O=C(Oc1cccc(F)c1OC(=O)c1cccc(O)c1)c1cccc(O)c1	24.4	73.7 µM	6.9	> 100 µM	> 100	> 100 µM			39.8	> 100	15.3	> 100 µM	7.91	> 100 µM	27.5	84.5 µM	24.6	> 100 µM	58.7	> 100
C=C(C)C(O)CCC1(C)C=Cc2c(c(C)cc3c2[nH]c2ccccc23)O1 (stereo not drawn)	2.43	9.81 µM and 6.13 µM	10.1	25 µM and 21.7 µM	2.11	8.96 µM and 6.03 µM	4.2	25 µM and 16.7 µM		20.5	1.93	8.23 µM and 4.71 µM	4.43	25 µM and 16.5 µM	2.19	12.1 µM and 5 µM	5.02	25 µM and 16.1 µM		
CC(=O)NC1C(OC[C@@H](CC(=O)N[C@@H](CC(=O)O)CC(=O)N[C@H](CC(=O)N[C@@H](CCCN)CC(=O)N[C@@H](CCCN)CC(=O)N[C@H](CC(N)=O)C(C)C)C(C)C)NC(=O)C[C@@H](N)C(C)C)OC(CO)C(O)C1O (stereo partly drawn)	> 100	> 100 µM	> 100	> 100 µM	> 100	> 100 µM	> 100	> 100 µM	> 100	> 100	> 100	> 100 µM			> 100	> 100 µM	> 100	> 100 µM	> 100	> 100
CCOC(=O)C12CCCC1(O)N(NC(=O)OC(C)(C)C)C(C)=C2C(=O)OC (stereo not drawn)		> 100 µM				> 100 µM		> 100 µM		> 100		> 100 µM				> 100 µM		> 100 µM		> 100
O=C(O)CCN(CCCCN(CCC(=O)O)CCC(=O)O)CCC(=O)O		> 100 µM		> 100 µM		> 100 µM		> 100 µM				> 100 µM				> 100 µM		> 100 µM		> 100
COc1ccc(/C=C/C(=O)c2cc(OC)c(OC)c(OC)c2)cc1OCc1cn(Cc2ccc(F)cc2)nn1	2.98	8.38 µM	3.24	13.3 µM	3.22	> 100 µM	2.14	8.66 µM	4.9	> 100	2.04	> 100 µM	0.843	> 100 µM	3.42	11.5 µM	2.63	9.13 µM		
N.N.N.N.[Co+3].[N-]=[N+]=[N-].[N-]=[N+]=[N-].[N-]=[N+]=[N-]	> 100	> 100 µM	> 100	> 100 µM	> 100	> 100 µM	61.1	> 100 µM	> 100	> 100	> 100	> 100 µM			> 100	> 100 µM	> 100	> 100 µM	> 100	> 100
CCc1ccccc1NC(=O)C1=C(C)NC(C)=C(C(=O)Nc2ccccc2CC)C1c1ccccc1Cl		> 100 µM		> 100 µM		> 100 µM		> 100 µM		> 100						> 100 µM		> 100 µM		> 100
